Where a name gives a salt, the structure may show the parent alone. Active and inactive are the calls of the source.
Assays:
[1] = tested on: Vero; experiment: cells; format: functional, cell-based; conditions: Chlorocebus sabaeus
[2] = tested on: Vero; experiment: cells; format: functional; conditions: Chlorocebus sabaeus
[3] = growth suppression of beta-catenin-knockout colon cells, dose response, cell-based, HCT116, human colon tumor (AID 1045); format: functional;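 further: HCT116 colon tumor cells with beta catenin knocked out; cells exposed to compound for 60 hours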
[4] = cells; format: functional
[5] = THP-1 cell cytotoxicity, dose response, cytotoxicity control for non-replicating M. tuberculosis project (AID 489025); format: functional
[6] = Vero E6 cell cytotoxicity, dose response, cytotoxicity control for non-replicating M. tuberculosis project, secondary assay (AID 492998); format: functional, VeroE6; conditions: Vero C1008
[7] = HepG2 cell cytotoxicity, dose response, cytotoxicity control for non-replicating M. tuberculosis project (AID 489018); format: functional; conditions: Mycobacterium tuberculosis
[8] = growth suppression of PTEN-null colon cells, dose response, cell-based, HCT116 PTEN knockout (AID 1047); format: functional;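 further: HCT116 colon tumor cells with PTEN knocked out; cells exposed to compound for 60 hours before readout; potency for loss of cell viability measured by luminescence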
[9] = target: Peroxisome proliferator-activated receptor gamma/Nuclear receptor coactivator 2 (Homo sapiens, UniProt P37231); experiment: TR-FRET dose response biochemical High Throughput Screening assay for agonists of the steroid receptor coactivator 2 (SRC-2) recruitment by the peroxisome proliferator-activated receptor gamma (PPAR gamma): non-selective agonists. [Related pubchem assays: 1297, 1032 ]; format: functional
[10] = target: Peroxisome proliferator-activated receptor gamma/Nuclear receptor coactivator 1 (Homo sapiens, UniProt P37231); experiment: TR-FRET dose response biochemical High Throughput Screening assay for agonists of the steroid receptor coactivator 1 (SRC-1) recruitment by the peroxisome proliferator-activated receptor gamma (PPAR gamma): non-selective agonists. [Related pubchem assays (depositor defined):AID1300, AID1808, AID504735, AID631]; format: protein assay
Peroxisome proliferator-activated receptor gamma/Nuclear receptor coactivator 1, sequence (P37231 whole entry): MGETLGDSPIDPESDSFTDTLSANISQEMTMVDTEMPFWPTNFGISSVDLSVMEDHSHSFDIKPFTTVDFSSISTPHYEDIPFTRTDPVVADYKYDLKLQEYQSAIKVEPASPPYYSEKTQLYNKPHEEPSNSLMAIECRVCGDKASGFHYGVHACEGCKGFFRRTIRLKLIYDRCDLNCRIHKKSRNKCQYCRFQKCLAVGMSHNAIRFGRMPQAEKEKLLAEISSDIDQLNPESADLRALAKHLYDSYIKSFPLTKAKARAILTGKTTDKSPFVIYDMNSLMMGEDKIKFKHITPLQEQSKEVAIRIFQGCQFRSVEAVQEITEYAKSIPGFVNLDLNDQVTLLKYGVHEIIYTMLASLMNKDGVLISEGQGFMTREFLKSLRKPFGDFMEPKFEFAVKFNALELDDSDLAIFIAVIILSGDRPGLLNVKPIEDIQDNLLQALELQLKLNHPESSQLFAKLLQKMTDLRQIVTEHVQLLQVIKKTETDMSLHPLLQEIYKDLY
Peroxisome proliferator-activated receptor gamma/Nuclear receptor coactivator 1, sequence (Q15788 whole entry, further chain): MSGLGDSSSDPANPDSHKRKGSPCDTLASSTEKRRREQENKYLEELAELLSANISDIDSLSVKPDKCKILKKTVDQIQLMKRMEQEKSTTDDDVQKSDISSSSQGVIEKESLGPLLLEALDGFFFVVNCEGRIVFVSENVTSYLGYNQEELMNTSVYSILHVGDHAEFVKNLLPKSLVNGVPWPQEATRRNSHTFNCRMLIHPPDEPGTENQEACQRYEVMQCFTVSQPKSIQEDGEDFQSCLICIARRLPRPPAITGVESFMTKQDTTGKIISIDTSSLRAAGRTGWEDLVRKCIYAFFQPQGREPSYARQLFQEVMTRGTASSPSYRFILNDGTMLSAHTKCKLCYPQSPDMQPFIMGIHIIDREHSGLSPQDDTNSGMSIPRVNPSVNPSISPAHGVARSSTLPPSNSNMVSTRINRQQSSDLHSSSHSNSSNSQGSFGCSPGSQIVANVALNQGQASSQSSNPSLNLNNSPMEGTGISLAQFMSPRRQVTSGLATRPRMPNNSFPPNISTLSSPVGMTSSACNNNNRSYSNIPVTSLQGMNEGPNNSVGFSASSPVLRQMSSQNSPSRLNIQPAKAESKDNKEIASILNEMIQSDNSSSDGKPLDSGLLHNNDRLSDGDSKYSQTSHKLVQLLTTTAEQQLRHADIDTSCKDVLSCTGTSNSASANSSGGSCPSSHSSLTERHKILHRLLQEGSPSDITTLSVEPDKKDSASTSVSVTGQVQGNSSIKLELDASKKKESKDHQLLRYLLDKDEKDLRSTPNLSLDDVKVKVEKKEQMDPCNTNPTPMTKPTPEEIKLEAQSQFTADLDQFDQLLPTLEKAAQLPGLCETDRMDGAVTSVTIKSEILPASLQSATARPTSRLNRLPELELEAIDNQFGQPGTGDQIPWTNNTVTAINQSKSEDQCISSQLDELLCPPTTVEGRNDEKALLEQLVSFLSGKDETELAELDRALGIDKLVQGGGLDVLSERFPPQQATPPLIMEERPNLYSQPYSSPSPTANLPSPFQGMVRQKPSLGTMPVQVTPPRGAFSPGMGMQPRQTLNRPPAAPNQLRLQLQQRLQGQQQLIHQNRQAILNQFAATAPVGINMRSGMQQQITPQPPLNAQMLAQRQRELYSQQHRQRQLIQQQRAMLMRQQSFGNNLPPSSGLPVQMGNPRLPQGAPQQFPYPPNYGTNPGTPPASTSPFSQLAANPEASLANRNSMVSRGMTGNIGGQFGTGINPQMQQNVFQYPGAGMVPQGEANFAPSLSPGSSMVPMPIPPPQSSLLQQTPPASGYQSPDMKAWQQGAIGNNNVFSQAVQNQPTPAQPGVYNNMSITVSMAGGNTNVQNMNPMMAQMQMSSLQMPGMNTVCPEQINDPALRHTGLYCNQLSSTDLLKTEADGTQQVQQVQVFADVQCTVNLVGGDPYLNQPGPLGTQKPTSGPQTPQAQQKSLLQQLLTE

[11] = target: Peroxisome proliferator-activated receptor gamma/Nuclear receptor coactivator 3 (Homo sapiens, UniProt P37231); experiment: TR-FRET dose response biochemical High Throughput Screening assay for agonists of the steroid receptor coactivator 3 (SRC-3) recruitment by the peroxisome proliferator-activated receptor gamma (PPAR gamma): non-selective agonists. [Related pubchem assays: 1301 (Confirmation screen.), 1048 (Primary screen.)]; format: functional
Peroxisome proliferator-activated receptor gamma/Nuclear receptor coactivator 3, sequence (P37231 whole entry): as the sequence (P37231 whole entry) above
Peroxisome proliferator-activated receptor gamma/Nuclear receptor coactivator 3, sequence (Q9Y6Q9 whole entry, further chain): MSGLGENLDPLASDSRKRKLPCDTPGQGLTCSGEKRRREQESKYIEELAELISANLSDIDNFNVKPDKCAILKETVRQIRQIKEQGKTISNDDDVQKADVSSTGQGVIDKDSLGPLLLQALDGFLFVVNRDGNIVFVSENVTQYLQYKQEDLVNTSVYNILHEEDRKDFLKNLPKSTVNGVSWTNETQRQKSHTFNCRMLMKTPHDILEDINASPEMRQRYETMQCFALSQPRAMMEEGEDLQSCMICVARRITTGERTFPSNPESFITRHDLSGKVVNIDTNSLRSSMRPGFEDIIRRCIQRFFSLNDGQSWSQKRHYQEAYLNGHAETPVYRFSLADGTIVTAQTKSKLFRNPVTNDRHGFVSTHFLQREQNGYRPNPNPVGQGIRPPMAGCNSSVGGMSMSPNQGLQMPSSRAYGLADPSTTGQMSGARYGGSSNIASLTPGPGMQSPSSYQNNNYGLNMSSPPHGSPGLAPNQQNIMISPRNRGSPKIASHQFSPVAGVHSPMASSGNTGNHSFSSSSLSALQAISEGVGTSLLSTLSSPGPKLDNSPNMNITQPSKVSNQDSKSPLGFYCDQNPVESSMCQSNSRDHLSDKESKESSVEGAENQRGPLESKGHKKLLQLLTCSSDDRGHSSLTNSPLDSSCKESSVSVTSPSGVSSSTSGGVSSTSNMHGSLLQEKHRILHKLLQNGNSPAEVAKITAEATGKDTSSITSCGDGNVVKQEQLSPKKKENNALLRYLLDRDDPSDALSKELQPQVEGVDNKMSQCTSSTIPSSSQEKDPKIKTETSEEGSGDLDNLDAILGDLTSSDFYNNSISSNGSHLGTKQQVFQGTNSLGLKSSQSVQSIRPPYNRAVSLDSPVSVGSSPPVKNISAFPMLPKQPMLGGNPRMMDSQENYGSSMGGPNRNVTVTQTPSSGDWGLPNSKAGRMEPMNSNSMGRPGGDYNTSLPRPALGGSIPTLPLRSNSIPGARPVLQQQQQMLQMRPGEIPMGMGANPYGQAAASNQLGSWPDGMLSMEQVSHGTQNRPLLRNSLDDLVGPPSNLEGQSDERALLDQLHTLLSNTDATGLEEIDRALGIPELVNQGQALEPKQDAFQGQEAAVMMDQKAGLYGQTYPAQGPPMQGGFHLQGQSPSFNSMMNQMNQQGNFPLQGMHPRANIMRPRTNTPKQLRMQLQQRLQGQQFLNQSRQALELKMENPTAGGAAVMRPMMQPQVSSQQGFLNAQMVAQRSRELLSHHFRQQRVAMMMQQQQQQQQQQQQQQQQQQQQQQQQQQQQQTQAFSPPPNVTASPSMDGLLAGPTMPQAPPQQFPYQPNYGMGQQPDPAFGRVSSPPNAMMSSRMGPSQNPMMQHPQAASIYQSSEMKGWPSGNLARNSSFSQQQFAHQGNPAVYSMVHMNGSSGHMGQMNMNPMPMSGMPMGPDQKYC

[12] = target: Voltage-gated inwardly rectifying potassium channel KCNH2 (Homo sapiens, UniProt Q12809); conditions: Potency;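 further: confirmatory quantitative high-throughput screen measuring inhibition of hERG channel activity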
Voltage-gated inwardly rectifying potassium channel KCNH2, sequence (Q12809 whole entry): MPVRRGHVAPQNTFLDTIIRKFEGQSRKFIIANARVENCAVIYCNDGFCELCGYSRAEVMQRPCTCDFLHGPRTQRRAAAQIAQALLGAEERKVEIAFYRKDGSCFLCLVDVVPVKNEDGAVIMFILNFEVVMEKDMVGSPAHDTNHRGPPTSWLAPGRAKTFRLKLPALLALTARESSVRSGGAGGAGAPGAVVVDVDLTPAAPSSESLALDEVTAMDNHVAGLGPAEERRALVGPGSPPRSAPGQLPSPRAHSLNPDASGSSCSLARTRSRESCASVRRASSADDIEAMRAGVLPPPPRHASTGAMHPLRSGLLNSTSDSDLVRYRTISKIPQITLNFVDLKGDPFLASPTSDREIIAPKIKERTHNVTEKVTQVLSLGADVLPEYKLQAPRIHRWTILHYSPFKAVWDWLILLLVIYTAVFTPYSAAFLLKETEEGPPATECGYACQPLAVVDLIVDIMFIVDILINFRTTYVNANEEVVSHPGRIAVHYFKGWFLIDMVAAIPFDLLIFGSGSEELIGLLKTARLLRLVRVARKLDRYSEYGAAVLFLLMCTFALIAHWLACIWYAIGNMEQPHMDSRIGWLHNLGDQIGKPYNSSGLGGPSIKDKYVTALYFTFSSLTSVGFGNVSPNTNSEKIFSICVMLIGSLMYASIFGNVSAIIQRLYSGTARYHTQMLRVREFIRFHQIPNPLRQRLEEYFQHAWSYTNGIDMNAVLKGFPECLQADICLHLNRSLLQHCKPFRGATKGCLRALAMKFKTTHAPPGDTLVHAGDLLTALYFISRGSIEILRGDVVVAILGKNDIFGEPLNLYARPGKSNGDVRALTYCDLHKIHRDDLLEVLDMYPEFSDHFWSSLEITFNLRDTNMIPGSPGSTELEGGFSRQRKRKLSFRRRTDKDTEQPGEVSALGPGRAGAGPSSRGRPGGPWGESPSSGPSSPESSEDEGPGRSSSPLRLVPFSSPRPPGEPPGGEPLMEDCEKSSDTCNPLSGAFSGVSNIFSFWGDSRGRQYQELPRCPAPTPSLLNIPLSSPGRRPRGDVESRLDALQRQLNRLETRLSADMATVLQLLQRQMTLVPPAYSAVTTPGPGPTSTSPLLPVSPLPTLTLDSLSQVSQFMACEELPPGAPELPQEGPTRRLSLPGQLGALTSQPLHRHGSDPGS

[13] = target: Cytochrome P450 3A4 (Homo sapiens, UniProt P08684); conditions: Potency;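 further: confirmatory qHTS run detecting inhibitors and substrates of CYP3A4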
[14] = NIH-3T3 fibroblast cytotoxicity, dose response, cytotoxicity control, cell-based, fluorescence, Alamar Blue, secondary assay (AID 2327); format: functional;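 further: NIH-3T3 mouse fibroblasts cultured with fluconazole at 8 µg/mL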
[15] = C. albicans growth with fluconazole, confirmation, fluorescence, retest (AID 2467); format: functional, cell-based
[16] = target: ATP-dependent molecular chaperone HSP82 (Candida albicans (strain WO-1) (Yeast), UniProt C4YTQ8); experiment: loss of DOC-induced GRE-beta-galactosidase reporter signal, dose response, Hsp90 inhibitor project, S. cerevisiae, luminescence (AID 2400); format: functional, cell-based;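 further: beta-galactosidase luminescence from glucocorticoid response element reporter as proxy for Hsp90 function; inhibitor potency where signal loss means Hsp90 inhibition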
[17] = target: T1, Serine/threonine-protein phosphatase (Candida dubliniensis (strain CD36 / CBS 7987 / NCPF 3949 / NRRLY-17841) (Yeast), UniProt B9W6M3); experiment: calcineurin pathway inhibitors in yeast reporter, dose response, S. cerevisiae, CDRE-lacZ, luminescence, secondary (AID 2388); format: functional, cell-based;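 further: yeast reporter cells carrying a calcineurin-responsive lacZ construct stimulated with calcium chloride; luminescent beta-galactosidase reporter signal in whole cells rather than isolated phosphatase activity; potency for inhibition where a drop in reporter signal means calcineurin blockade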
T1 sequence (B9W6M3 whole entry): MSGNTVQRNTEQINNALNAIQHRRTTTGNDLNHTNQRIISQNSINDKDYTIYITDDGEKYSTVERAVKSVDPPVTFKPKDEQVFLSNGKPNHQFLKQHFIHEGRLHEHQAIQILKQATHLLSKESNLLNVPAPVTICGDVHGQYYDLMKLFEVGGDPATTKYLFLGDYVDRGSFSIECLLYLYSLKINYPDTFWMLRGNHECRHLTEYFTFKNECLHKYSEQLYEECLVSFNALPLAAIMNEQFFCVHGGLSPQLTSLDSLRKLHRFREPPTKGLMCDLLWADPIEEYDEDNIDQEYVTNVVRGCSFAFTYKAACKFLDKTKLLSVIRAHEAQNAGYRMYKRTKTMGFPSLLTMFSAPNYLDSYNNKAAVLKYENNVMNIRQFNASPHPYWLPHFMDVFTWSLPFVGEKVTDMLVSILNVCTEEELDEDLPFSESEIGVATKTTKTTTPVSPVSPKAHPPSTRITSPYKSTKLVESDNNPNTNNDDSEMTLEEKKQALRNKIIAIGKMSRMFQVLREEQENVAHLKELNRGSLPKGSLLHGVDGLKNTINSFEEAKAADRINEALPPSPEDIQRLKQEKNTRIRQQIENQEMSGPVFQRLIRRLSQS

[18] = cells
[19] = tested on: BJ; experiment: cytotoxicity toward BJ-TERT-LT-ST fibroblasts, dose response, cell-based, RAS-independent, luminescence (AID 1935); format: functional; conditions: Homo sapiens;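 further: BJ fibroblasts immortalized with TERT plus LT and ST oncogenes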
[20] = HEp-2 cell cytotoxicity, dose response, cytotoxicity control for RSV inhibitor project, HTS (AID 2410); format: functional; conditions: human respiratory syncytial virus
[21] = tested on: BJ; experiment: cells; format: functional, cell-based; conditions: Homo sapiens
[22] = tested on: BJ; experiment: cytotoxicity toward BJ-TERT fibroblasts, dose response, cell-based, RAS-independent, luminescence (AID 1933); format: functional; conditions: Homo sapiens
[23] = cytotoxicity toward DRD oncogenic fibroblasts, dose response, cell-based, non-viral oncogenic, luminescence (AID 1934); format: functional; conditions: Homo sapiens
[24] = target: T2, Short transient receptor potential channel 4 (Mus musculus, UniProt Q9QUQ5); experiment: mouse TRPC4 channel activators, dose response, cell-based, HEK293 TRPC4/mu-opioid, Fluo-4 calcium (AID 434937); format: functional
T2 sequence (Q9QUQ5 whole entry): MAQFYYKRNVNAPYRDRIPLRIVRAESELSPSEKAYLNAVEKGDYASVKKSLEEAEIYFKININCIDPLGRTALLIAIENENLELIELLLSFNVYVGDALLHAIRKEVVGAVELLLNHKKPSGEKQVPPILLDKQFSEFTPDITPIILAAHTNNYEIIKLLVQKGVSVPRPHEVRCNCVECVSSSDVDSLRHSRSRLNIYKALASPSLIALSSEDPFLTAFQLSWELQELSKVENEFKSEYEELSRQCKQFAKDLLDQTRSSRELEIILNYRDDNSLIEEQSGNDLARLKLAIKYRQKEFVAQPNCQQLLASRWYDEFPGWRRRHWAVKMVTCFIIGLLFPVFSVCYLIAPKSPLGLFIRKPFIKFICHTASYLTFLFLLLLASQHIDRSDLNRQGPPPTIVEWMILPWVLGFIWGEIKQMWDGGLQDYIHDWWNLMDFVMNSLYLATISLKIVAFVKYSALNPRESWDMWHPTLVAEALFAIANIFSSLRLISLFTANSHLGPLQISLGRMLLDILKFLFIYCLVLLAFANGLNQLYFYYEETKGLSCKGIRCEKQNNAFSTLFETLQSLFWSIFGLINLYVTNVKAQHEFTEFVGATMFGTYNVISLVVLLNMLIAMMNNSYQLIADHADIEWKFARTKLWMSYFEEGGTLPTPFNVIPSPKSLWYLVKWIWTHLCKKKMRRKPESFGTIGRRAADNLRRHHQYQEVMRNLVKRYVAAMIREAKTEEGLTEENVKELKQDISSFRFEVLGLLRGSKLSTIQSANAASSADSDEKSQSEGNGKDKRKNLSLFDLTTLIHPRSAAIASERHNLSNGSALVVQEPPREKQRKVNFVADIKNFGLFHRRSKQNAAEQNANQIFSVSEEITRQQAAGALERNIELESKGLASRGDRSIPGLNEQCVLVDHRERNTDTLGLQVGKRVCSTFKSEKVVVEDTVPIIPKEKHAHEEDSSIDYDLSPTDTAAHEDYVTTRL

[25] = microbe, parasite or virus in culture; format: functional; conditions: Mycobacterium tuberculosis
[26] = insulin promoter down-regulators in MIN6 cells, imaging, high-content screening, mouse beta cells (AID 1628); format: functional
[27] = cytotoxicity in MIN6 insulinoma cells, dose response, cytotoxicity control, cell-based, mouse insulinoma (AID 2122); format: functional;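 further: confirmatory high-throughput counterscreen run to flag cytotoxic compounds; mouse MIN-6 beta cells carrying an insulin promoter eGFP reporter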
[28] = target: FAD-linked sulfhydryl oxidase ALR (Homo sapiens, UniProt P55789); experiment: inhibitors of human ALR sulfhydryl oxidase, dose response, biochemical, H2O2 detection, luminescence, cherry-pick (AID 493248)
[29] = target: Cytochrome P450 2D6 (Homo sapiens, UniProt P10635);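 further: CYP2D6 member of a cytochrome P450 panel assay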
[30] = target: T3, Cytochrome P450 1A2 (Homo sapiens, UniProt P05177);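 further: PubChem cytochrome P450 panel assay, CYP1A2 panel member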
T3 sequence (P05177 whole entry): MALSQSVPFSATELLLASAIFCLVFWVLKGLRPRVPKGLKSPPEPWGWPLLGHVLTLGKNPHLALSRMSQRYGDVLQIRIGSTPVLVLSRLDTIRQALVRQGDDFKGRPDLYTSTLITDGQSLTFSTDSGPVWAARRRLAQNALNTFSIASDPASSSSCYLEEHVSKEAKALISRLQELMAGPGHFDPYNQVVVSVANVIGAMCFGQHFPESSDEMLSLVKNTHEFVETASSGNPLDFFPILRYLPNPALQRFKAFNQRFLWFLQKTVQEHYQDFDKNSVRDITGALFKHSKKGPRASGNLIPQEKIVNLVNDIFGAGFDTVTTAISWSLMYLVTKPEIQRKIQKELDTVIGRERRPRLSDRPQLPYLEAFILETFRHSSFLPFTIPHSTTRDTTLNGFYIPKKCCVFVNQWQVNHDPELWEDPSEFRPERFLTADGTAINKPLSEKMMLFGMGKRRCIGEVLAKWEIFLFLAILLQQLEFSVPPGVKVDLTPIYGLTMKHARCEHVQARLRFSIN

[31] = cytotoxicity in KRAS-transformed pancreatic duct cells, primary screen, cell-based, fluorescence, HTS (AID 431); format: functional; conditions: Homo sapiens;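 further: cell line used: HPDE-C7K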
[32] = cytotoxicity in HPDE-C7 cells, cell-based, fluorescence, HTS (AID 430); format: functional; conditions: Homo sapiens

O=C(c1ccc2c(c1)N(Cc1cccc(Cl)c1)C(=O)c1ccccc1S2(=O)=O)N1CCN(c2ccccn2)CC1
IC50 [1]: 10.1 µM (active) | CC50 [2]: > 25 µM (active)

Clc1cccc2c1Sc1ccccc1CC2N1CCNCC1 (stereo not given)
EC50 [3]: 7.41 µM (active) | IC50 [4]: 11.5 µM (active) | CC50 [5]: 8.49 µM (active) | CC50 [6]: 9.77 µM (active) | CC50 [7]: 7.37 µM (active) | EC50 [8]: 7.22 µM (active)

O=C(c1cc2c(s1)-c1ccccc1OC2)N1CCN(c2ccccn2)CC1
EC50 [9]: 23.2 µM (not active) | EC50 [10]: 33.7 µM (inactive) | EC50 [11]: > 79.4 µM (not active)

CN(C)c1ccc(C2(c3ccc(N(C)C)cc3)OC(=O)c3cc(N(C)C)ccc32)cc1
AC50 [12]: 0.251 µM (inconclusive) | AC50 [13]: 7.94 µM (inconclusive)

O=C(Nc1nnc(-c2ccco2)o1)c1cccc(Cl)c1
EC50 [14]: > 150 µM (inactive) | EC50 [15]: 1.33 µM (active) | EC50 [16]: > 150 µM (inactive) | EC50 [17]: > 180 µM (inactive)

O=c1oc(-c2ccccc2F)nc2c1cnn2-c1ccccc1
EC50 [9]: > 79.4 µM (not active) | EC50 [10]: > 79.4 µM (inactive) | EC50 [11]: > 79.4 µM (not active)

O=C(CSc1ncnc2c1oc1ccccc12)OCc1ccccc1
EC50 [9]: > 8.82 µM (not active) | EC50 [10]: > 2.94 µM (inactive) | EC50 [11]: > 79.4 µM (not active)

Cc1cccc(-n2c(SCC(=O)Nc3ncc(Cl)cc3Cl)nc3ccccc32)c1
IC50 [1]: 0.56 µM (active) | IC50 [18]: 1.26 µM (active) | EC50 [19]: > 150 µM (not active) | CC50 [20]: 2.36 µM (active) | EC50 [21]: 50.5 µM (inconclusive) | CC50 [2]: > 25 µM (active) | EC50 [22]: 33.7 µM (active) | EC50 [23]: 94.2 µM (active)

O=C(CCC1CCCC1)c1c(O)c2ccccc2oc1=O
IC50 [4]: 8.45 µM (active) | CC50 [5]: 23.5 µM (active) | CC50 [6]: 14.4 µM (active) | CC50 [7]: > 20 µM (active) | EC50 [24]: 5.96 µM (active) | CC50 [25]: 15.4 µM (active)

CN1CCN(c2ccccc2NC(=O)c2cccc(OCc3ccccc3)c2)CC1
IC50 [26]: 4.3 µM (active) | IC50 [27]: 4.17 µM (active)

CCCN1C(=O)c2ccccc2NC1c1ccc(OC)cc1O (stereo not given)
AC50 [28]: 12.2 µM (active) | IC50 [1]: 24.1 µM (active)

Clc1ccc(Cl)c(-c2ccc(/C=N/c3nc[nH]n3)o2)c1
EC50 [9]: 12.6 µM (not active) | EC50 [10]: 13.7 µM (inactive) | EC50 [11]: > 79.4 µM (not active)

COc1ccccc1-c1cc(C(=O)N/N=C/c2cccs2)c2ccccc2n1
IC50 [1]: 18.9 µM (active) | CC50 [20]: 24.7 µM (active) | CC50 [2]: > 25 µM (active)

NNC(=O)c1ccncc1 [ISONIAZID]
AC50 [29]: 12.6 µM (inconclusive) | AC50 [30]: 6.31 µM (inconclusive) | AC50 [12]: 35.5 µM (inconclusive)

CC1(C)CCC2=C(O1)c1ccccc1C(=O)C2=O [LAPACHONE]
AC50 [12]: 15.8 µM (inconclusive)

CC(CN1c2ccccc2Sc2ccccc21)N(C)C (stereo not given) [PROMETHAZINE HYDROCHLORIDE]
AC50 [28]: 0.367 µM (active) | EC50 [31]: > 20 µM (not active) | AC50 [12]: 15.8 µM (inconclusive) | EC50 [32]: > 20 µM (not active)
